Laboratory results taken from PubChem BioAssay AID2305 (GlaxoSmithKline (GSK), 2010).
“And” between values parts separate entries of the source, which are not always exact repeats. Identical values can stand only once. Where a SMILES comes first, the peptide text is derived from it. The star is where a group is joined. Boc = CC(C)(C)OC(=O)*

system: P. falciparum 3D7 growth, pLDH absorbance; assay: P. falciparum 3D7 growth inhibition, dose response, strain 3D7 (AID 2305)

| Structure (SMILES) | IC50 |
| --- | --- |
| Cc1nc2nc(N)nc(N)c2c(C)c1Cc1ccccc1Cl | 110 nM |
| O=C(Nc1ccc(Cn2nc(Cl)c(N3CCCNCC3)cc2=O)cc1)Nc1ccc(-c2ccccc2)cc1 | 840 nM |
| CC(c1cccc(S(=O)(=O)NCc2ccc(Cl)cc2Cl)c1)N1CCC(N2CCCCC2)CC1 (configuration not stated) | 750 nM |
| CC(CN(C)C)Oc1ccc2[nH]c(-c3cccc(OCc4ccccc4)c3)nc2c1C#N (configuration not stated) | 410 nM |
| COc1c(C2CCN(CCCCNC(=O)c3cc(-c4ccc(C#N)cc4)n[nH]3)CC2)ccc2c1CCCC2 | 1160 nM |
| COC(=O)c1ccc(CC(C)NCC(O)c2cc(Cl)c(N)c(Cl)c2)cc1 (configuration not stated) | 880 nM |
| CCC[C@@H]([C@@H](CC(C)C)C(=O)N[C@@H](CCCCNC(=O)OCc1ccccc1)C(=O)Nc1ncccn1)N(O)C=O | 60 nM |
| CC[C@H]1CN(C/C=C/c2ccc(OC)cc2)CC[C@H]1CCCc1ccnc2ccc(O)cc12 | 660 nM |
| Cn1nccc1C(=O)NCCNCc1cccc(-c2ccc(-c3nc4ccc(C(F)(F)F)cc4[nH]3)s2)c1 | 150 nM |
| N#Cc1ccccc1C(=O)N(Cc1cncn1Cc1cccc(F)c1)CC1CC1 | 730 nM |
| O=C(Nc1ccc(OCc2ccccc2)cc1)c1nc2ccccc2nc1Cl | 250 nM |
| Fc1ccc(CN2CCN(c3ncnc4cc(-c5ccccc5)sc34)CC2)cc1 | 1020 nM |
| COc1ccc2cc(C=NNc3nc4ccccc4[nH]3)c(Cl)nc2c1 | 650 nM |
| Clc1ccc(-n2cnc3c(Nc4ccc(Oc5ccccc5)cc4)ncnc32)cc1Cl | 750 nM |
| c1ccc(Oc2ccc(Nc3ccnc4cc(-c5ccc(CN6CCNCC6)o5)ccc34)cc2)nc1 | 240 nM |
| CCC(C)(C)c1ccc(S(=O)(=O)Nc2ccc(Cl)c(OCCN3CCCCC3)c2)cc1 | 1110 nM |
| CCNc1cc(C)nc(Nc2ccc(NS(=O)(=O)c3cc(OC)ccc3OC)cc2)n1 | 850 nM |
| COc1cccc(C(=O)NCc2cccs2)c1Oc1ccccc1 | 60 nM |
| NC(N)=NC(=O)Nc1cc(Cl)c(F)c(Cl)c1 | 640 nM |
| CC(CN1CCN(C)CC1)C(=O)Nc1ccc(-c2cccc(-c3nc4ccc(F)cc4[nH]3)c2)cc1 (configuration not stated) | 520 nM |
| O=S(=O)(Nc1cccc(CCN2CCC(N3CCCCC3)CC2)c1)c1ccc(-c2ccccc2)cc1 | 1120 nM |
| CC(=O)c1ccc(-c2ccccc2)s1 | 1080 nM |
| O=C(C=Cc1ccc(Cl)c(Cl)c1)NCCCCCN1CCCC(CCCNC(=O)c2cccs2)C1 (configuration not stated) | 1300 nM |
| CC1=C(C(=O)Nc2cc3cn[nH]c3cc2F)C(c2cccc(O)c2F)CC(=O)N1 (configuration not stated) | 630 nM |
| c1ccc(Oc2ccc(Nc3ccnc4cc(-c5ccc(CNCCN6CCOCC6)o5)ccc34)cc2)cc1 | 440 nM |

| Structure (SMILES) | IC50 |
| --- | --- |
| CCCCCc1cc(O)c2c(c1)OC(C)(C)CC2C1=CCN(Cc2cnc3ccccc3c2)CC1 (configuration not stated) | 280 nM |
| O=C(Nc1cccc(CN2CCCN(CC3CCCCC3)CC2)c1)c1cc2ccccc2s1 | 810 nM |
| Nc1c(Cl)cc(C(O)CNCCCCCCOCCc2ccc(CO)s2)cc1Cl (configuration not stated) | 1050 nM |
| Cc1cccc(C)c1N1CCN(C2CCC(NC(=O)/C=C/c3ccccc3)CC2)CC1 (configuration not stated) | 1180 nM |
| CCc1ccc(C2CCN(CCCCNC(=O)c3ccc(NC(=O)c4ccc(Cl)cc4)cc3)CC2)c(OC(C)=O)c1 | 150 nM |
| CCc1c[nH]c2c(N3CCCC3=O)cc(C(=O)N[C@@H](Cc3ccccc3)[C@H](O)CNC(C)(C)c3cccc(OC)c3)cc12 | 190 nM |
| CN(C)c1c(CNCCCCCCNCc2ccc3ccccc3c2N(C)C)ccc2ccccc12 | 460 nM |
| CCCCCCN=C(N)c1ccc2nc(-c3ccc(O)cc3)[nH]c2c1 | 190 nM |
| Cc1cccc2[nH]c(-c3ccc(-c4cccc(NC(=O)CCc5cnc[nH]5)c4)cc3)nc12 | 410 nM |
| CCCc1ccc(S(=O)(=O)NC2CCN(c3ccnc(Nc4ccc(F)cc4)n3)C2)cc1 (configuration not stated) | 1010 nM |
| COCC(C)n1c(C)cc(C(=O)CSc2nnc(Nc3ccccc3)s2)c1C (configuration not stated) | 740 nM |
| C/C=C/COc1ccc(-c2c(C)[nH]c(C)c(Cl)c2=O)cc1 | 200 nM |
| COc1ccc(NC(=O)/C=C/c2cc(F)cc(C(F)(F)F)c2)cc1OCCN(C(C)C)C(C)C | 670 nM |
| O=C(Nc1ccc(F)c(Cl)c1)c1cc([N+](=O)[O-])cc2cn[nH]c12 | 320 nM |
| Cc1ccc(NC(=O)Nc2ccc(S(=O)(=O)c3ccc(NC(=O)Nc4ccc(C)c(Cl)c4)cc3)cc2)cc1Cl | 750 nM |
| O=C(/C=C/c1ccc(Cl)c(Cl)c1)NCCCCCN1[C@@H]2CC[C@H]1CC(c1c[nH]c3ccc(O)cc13)C2 (some centres not stated) | 880 nM and 1000 nM |
| O=C(Nc1ccc(Br)cc1)c1cc(Br)ccc1NS(=O)(=O)c1ccc(C(F)(F)F)cc1 | 180 nM |
| COc1ccc(CNC2CCN(C)CC2)cc1-c1cccc(S(=O)(=O)NCc2ccccc2)c1 | 720 nM |
| CN1CCC(Oc2ccc(CN3CC[C@H](NC(=O)c4ccc(F)c(F)c4)C3)c3ccccc23)C1 (some centres not stated) | 1080 nM |
| O=C(Nc1cccc(-c2cccc(-c3nc4ccc(C(F)(F)F)cc4[nH]3)c2)c1)c1cccnc1 | 400 nM |
| O=C(Nc1ccccc1O)c1ccc(Oc2cccc(C(=O)Nc3ccccc3O)c2)cc1 | 800 nM |
| Cc1noc(C)c1-c1ccc2c(Nc3ccccc3C(C)(C)C)c(C(=O)NCc3ccccc3)cnc2c1 | 760 nM |
| FC(F)(F)c1cccc(C=NNc2nc3ccccc3[nH]2)c1 | 150 nM |
| N#Cc1ccc2c(c1)CCN(CCCn1c(-c3ccc4ccccc4c3)nc3ccncc31)CC2 | 200 nM |
| Oc1c(C(Nc2ccccn2)c2ccc(Cl)cc2Cl)ccc2cccnc12 (configuration not stated) | 890 nM |

| Structure (SMILES) | IC50 |
| --- | --- |
| COc1ccc(CCC(C)N2C[C@@H](N)[C@H](c3cn(C)c4cnccc34)C2)cc1 (some centres not stated) | 1360 nM |
| COc1cc(Cc2cnc(N)nc2N)ccc1Oc1ccc(N)cc1 | 870 nM |
| Oc1ccc(CCNc2nc(NCCCOc3cc(CN4CCCCC4)ccc3F)nc(N3CCNCC3)n2)cc1 | 1760 nM |
| N#Cc1ccccc1Sc1ccccc1C(=O)Nc1ccc2ccccc2n1 | 510 nM |
| Cc1ccc(NS(=O)(=O)c2cccs2)cc1-c1cccc(C(=O)Nc2ccc(F)cc2)c1 | 650 nM |
| CCCCNC(=O)[C@H](Cc1ccccc1)NC(=O)c1ccc(O)c(-c2ccc(Cl)c(Cl)c2)c1 | 530 nM |
| O=C(NCCNc1ccnc(Nc2ccc(F)cc2)n1)Nc1ccccc1F | 760 nM |
| Cc1ccc(-n2cc(CNCC3CCN(CCO)CC3)c(-c3ccc(F)cc3)n2)cc1 | 2000 nM |
| Cc1ccc(NC(=O)Nc2ccc(Cn3ncc(N4CCCNCC4)c(Cl)c3=O)cc2)cc1 | 920 nM |
| COc1ccc(-c2nc3c(N)nc(N)nc3nc2C(C)C)cc1 | 190 nM |
| CCCCNCc1ccc(-c2nc(CN(CCCn3ccnc3)C(=O)Nc3ccc(CC)cc3)cs2)cc1 | 830 nM |
| CCCCOc1cc(CNCCCCCCNCc2cc(OCCCC)cc3ccccc23)c2ccccc2c1 | 740 nM |
| CCCCNC(=O)[C@@H](NC(=O)c1ccc(O)c(-c2ccc(Cl)c(Cl)c2)c1)C(C)C | 230 nM |
| CC(=O)Nc1ccc2[nH]cc(C3CCN(CCC4CCN(C(=O)/C=C/c5ccc(Cl)c(Cl)c5)CC4)CC3)c2n1 | 520 nM |
| CCCCCC(NCCCC)c1ccc(OCCOc2ccc(C(CCCCC)NCCCC)cc2)cc1 (configuration not stated) | 1240 nM |
| CC(C#N)Cc1ccc(-c2cnc(N)c3cc(-c4ccnc(N)n4)ccc23)cc1 (configuration not stated) | 990 nM |
| CCCCNCc1ccc(-c2nc(CN(Cc3ccc(Cl)c(Cl)c3)C(=O)CN(C)C)cs2)cc1 | 800 nM |
| O=C(C=Cc1cccc(F)c1)NC1CCC(CCN2CCc3ccc(-c4cnccn4)cc3CC2)CC1 (configuration not stated) | 450 nM |
| Cc1ccc(NS(=O)(=O)c2ccc(-c3ccccc3)cc2)c(Cn2cnc(N3CCCNCC3)cc2=O)c1 | 860 nM |
| CC(C)OC(=O)c1ccc(NC(=O)N[C@@H](Cc2ccc(O)cc2)C(=O)NC2C[C@H]3CC[C@@H](C2)N3Cc2ccccc2)cc1 (some centres not stated) | 1080 nM |
| O=C(Cn1c(CCc2cccc(F)c2F)cc(=O)c2cccnc21)N(CCn1ccnc1)Cc1ccc(-c2ccc(C(F)(F)F)cc2)cc1 | 670 nM |
| CC(=O)Nc1ccc(OCCCCCOc2ccc(NC(C)=O)cc2Cl)c(Cl)c1 | 830 nM |
| Cc1ccc(-n2[nH]c(C)c(N=Nc3cccc(-c4cccc(NC(=O)OC(C)(C)C)c4)c3O)c2=O)cc1C | 700 nM |
| OCC1CCN(Cc2cccc(-c3cccc(-c4nc5ccc(C(F)(F)F)cc5[nH]4)c3)c2)CC1 | 510 nM |
| CC(C)(CNCc1ccc(C(F)(F)F)cc1)c1nc(-c2ccc(Cl)c(O)c2)c(-c2ccnc(N)n2)[nH]1 | 150 nM |

| Structure (SMILES) | IC50 |
| --- | --- |
| CCNC(=O)c1ccc(-n2nc(C)cc2-c2ccccc2)cc1 | 1120 nM |
| CCCc1cc(Cc2cnc(N)nc2N)cc(CCC)c1OCCCC(=O)OCC | 50 nM |
| c1ccc(-c2cccc(-c3ccccn3)n2)nc1 | 900 nM |
| COc1ccnc(NCCCNCc2cn(S(=O)(=O)c3ccccc3)c3ccccc23)c1 | 790 nM |
| Clc1cc(Nc2ccnc3ccc(Br)cc23)ccc1Oc1ccc(Cl)c2ccccc12 | 630 nM |
| CNC(=O)Cc1ccc(C(=O)Nc2cccc(-c3csc(-c4nc5ccccc5[nH]4)c3)c2)cc1 | 270 nM |
| CC(C)CNCc1cccc(-c2cccc(CN(C(=O)Nc3ccccc3)C3CCN(Cc4ccccc4)CC3)c2)c1 | 370 nM |
| O=C(Nc1cc(Cl)cc(Cl)c1)c1cnn(-c2ccc(F)cc2)c1C1CCNCC1 | 850 nM |
| COc1ccc2nccc([C@@H](O)CN3CCC(NC(=O)C(=Cc4ccc(C#N)cc4)c4ccc(-c5ccccc5)cc4)CC3)c2c1 | 740 nM |
| CCCCN1CC[C@@H](CCC(O)c2ccnc3ccc(OCCC(C)C)cc23)[C@@H](CC)C1 (some centres not stated) | 990 nM |
| O=C(NC(Nc1ccc([N+](=O)[O-])cc1)C(Cl)(Cl)Cl)c1cccc(Cl)c1 (configuration not stated) | 860 nM |
| OC(CNCc1ccccc1OCc1ccccc1)c1cccc(I)c1 (configuration not stated) | 420 nM |
| CC(C)N1CCN(C(CN2CCN(CCCOc3cccc(-c4ccccc4)c3)CC2)c2ccc(F)cc2)CC1 (configuration not stated) | 890 nM |
| COc1c(C2CCN(CCCCNC(=O)c3ccc(-c4ccc(C(=O)C(F)(F)F)cc4)cc3)CC2)ccc2c1CCCC2 | 1100 nM |
| COc1ccc(CN2CCC(CNCCc3c(Cl)cccc3Cl)CC2)cc1 | 430 nM |
| Cc1cccc2[nH]c(-c3cccc(-c4ccc(C(=O)N5CCCCC5C(C)O)cc4)c3)nc12 (configuration not stated) | 370 nM |
| O=C(Nc1ccc(Cn2ncc(N3CCCNCC3)c(Cl)c2=O)cc1)Nc1cccc(C(F)(F)F)c1 | 640 nM |
| CC(C)(C)c1ccc(CN2CCC(NC(=O)c3ccc(-c4ccccc4F)s3)CC2)cc1 | 1200 nM |
| CCCc1cc(Cc2cnc(N)nc2N)cc(CC)c1OC | 820 nM |
| COC(=O)CC[C@H](NC(=O)[C@H](C)NC(=O)OC(C)(C)C)C(=O)OC (Boc-Ala-Glu(OMe)-OMe) | 820 nM |
| COc1ccc(CNCc2ccc(-c3ccc(-c4nc5ccccc5[nH]4)cc3)cc2)cc1 | 240 nM |
| COc1ccc(C=Cc2cc(N)c3ccccc3n2)cc1 | 970 nM |
